According to patent US20130039951A1, “Process Of Preparing A Stabilized And Solubilized Formulation Of Sirolimus Derivatives” (DONG-A PHARM. CO., LTD., priority 2011, published 2013):

Legend:
[1] = Stability: storage in glass vial at 80° C. for 60 hours, drug content by HPLC; type: physicochemical
Description: For Examples 1 to 6 and Comparative Examples 2 and 3, their stability was evaluated and the results were compared. Each of the samples was placed in a glass vial and stored at 80° C. for 60 hours, and then the content of the drug was quantified by using a high performance liquid chromatography.

[2] = Elution test of tablets in distilled water, paddle method, HPLC; type: physicochemical; settings: 900 mL distilled water, 37.5° C., 10 mg everolimus, after 1 hour
Description: The granules of the examples were mixed with pharmaceutical excipients as set forth in Table 1 and then tableted to give a tablet. A direct compressing method was used to prepare a tablet comprising 10 mg of a sirolimus derivative with a hardness of 13 to 15 Kp. However, the formulation prepared from Comparative Example 1 had difficulties in being mixed with the pharmaceutical excipients of Table 1 and also met with an obstacle in a tableting process so that it was subjected to an additional milling process and controlled to have a granularity of 200 to 300 μm before being mixed with the excipients and tableted.
The tablets as obtained were evaluated for their elution property. 900 mL of an elution liquid (distilled water) was put into an elution tester and the granules as obtained in Examples 1 to 6 were taken in an amount corresponding to a dosage of 10 mg of everolimus and subjected to an elution test at 37.5° C. with 50 cycles per a minute by using a paddle method for 2 hours. For each […] taken in accordance with a predetermined schedule, the concentration of everolimus in the elution liquid was quantified by using a high performance liquid chromatography. […]

content after being left for 60 hours ([1]; 80° C., 60 hours): 23.5%
Content, initial ([1]; before storage): 100.4 wt %
Content, After 60 hours ([1]; stored at 80° C. for 60 hours in glass vial): 23.5 wt %
elution rate of everolimus [2]: about 37%
Compound: CO[C@H]1C[C@@H]2CC[C@@H](C)[C@@](O)(O2)C(=O)C(=O)N2CCCC[C@H]2C(=O)O[C@H]([C@H](C)C[C@@H]2CC[C@@H](OCCO)[C@H](OC)C2)CC(=O)[C@H](C)/C=C(\C)[C@@H](O)[C@@H](OC)C(=O)[C@H](C)C[C@H](C)/C=C/C=C/C=C/1C [Comparative Example 2, 40-O hydroxyethyl rapamycin]
